Measured values reported in patent US20210181179A1, “DIAGNOSIS AND TREATMENT OF IMMUNOTHERAPY-INDUCED NEUROTOXICITY” (MEMORIAL SLOAN KETTERING CANCER CENTER, priority 2018, published 2021).

Assays:
[1] = tested on: HMC3 microglial cell line; experiment: RT-PCR of cytokines and chemokines in microglial cells; type: cell-based, human; conditions: for key chemokines, including CCL2, CXCL9 and CXCL10, and cytokine IL1beta: monocyte and microglial cell activation
Text: FIGS. 19A-E. Kynurenine metabolites contribute to CRS. (FIG. 19A-B) RT-PCR analysis of cytokines and chemokines that lead to myeloid cell activation in response to kynurenine metabolites exposure. ([…]) Western blot analysis of HMC3 microglial cell line in response to kynurenine metabolites exposure. (FIGS. 19D-E.) RT-PCR analysis of cytokines and chemokines in response to exposure to cytokines shown (TNF, Il1β, IFNγ).
CCL2 (MCP1) and CXCL10 (IP10) serve as chemo-attractants for myeloid and T cells, while CXCL9 (MIG) is a potent T cell chemoattractant. […] We confirmed Il1β protein production in response to Il1β stimulation (FIG. 19C). Il1β production was dependent on Ahr activity, as addition of an Ahr antagonist blocked up-regulation of Il1β. Il1β is a strong inducer of microglial activation.

NMDA receptors = experiment: Western blot of HCN2 neurons for NMDA receptor activation (p-CREB, p-Erk); type: cell-based; conditions: 30 min, cytokines applied via culture filtrates of stimulated HMC3 microglia
Text: FIGS. 18A-B. Western blot analysis of HCN2 neurons showing NMDA receptor activation through increase in p-CREB levels in response to exposure to conditioned media. The conditioned media was produced by microglia and monocytes treated with cytokines to stimulate quinolinic acid (QUIN) production (FIG. 18A). This effect can be blocked with the use of IDO and AhR inhibitors (FIG. 18B) that block either kynurenine metabolite production or signaling.
QUIN binds directly to NMDA receptors, and leads to Ca^2+ influx, followed by activation cascade through Erk kinase phosphorylation and eventual phosphorylation of CREB transcription factor. In order to test if microglial cell derived QUIN is sufficient to activate NMDA receptors, we performed a co-culture experiment. Culture filtrates from an HMC3 microglial cell line were stimulated with IFNγ, Il1β, or combination of both, and were layered over HCN2 cortical neurons for 30 min, after which the cells were lysed and tested for downstream effectors of NMDA receptor activation.

[2] = early intervention strategy; cited from earlier work
[3] = tested on: adult patients with CD19+B-ALL; experiment: Management of neurotoxicity and CRS (tocilizumab, corticosteroid, seizure prophylaxis) in the 19-28z CAR T cell trial; type: in vivo, human
Text: The anti-IL-6 receptor monoclonal antibody, tocilizumab, with or without corticosteroid is often used to mitigate CRS and neurotoxicity. Six (18%) of 33 patients with neurotoxicity received tocilizumab alone; 14 (42%) received tocilizumab plus corticosteroid; 4 (12%) received corticosteroid alone; and 9 (27%) received neither tocilizumab nor corticosteroid (FIG. 6/Supplementary Fig. S1). In the 16 patients with severe neurotoxicity who received tocilizumab, 9 (56.3%) had peak neurotoxicity after the first dose of tocilizumab whereas 7 (43.7%) had peak neurotoxicity prior to or on the day of tocilizumab administration. […] The time from first tocilizumab and/or steroid dose to resolution of neurotoxicity (median, 9 days; range 4-21 days) was longer than the time to resolution of CRS (median, 1 day; range 0-3 days; P<0.001), confirming previous findings that neurotoxicity is less responsive than CRS to these treatment interventions.
Toxicity assessment: CRS was graded according to the MSKCC CRS grading system. Severe CRS was defined as ≥grade 3. Neurotoxicity was prospectively graded according to National Cancer Institute common terminology criteria for adverse events (CTCAE) v4.03 by the principal investigator (P). An independent retrospective review of the electronic medical record was performed by a neurologist (BS) who assigned daily neurotoxicity grades to the AE terms according to CTCAE v4.03. Discrepancies were adjudicated by consensus review. All patients developing neurologic symptoms were evaluated by the neurology consult service and followed with daily neurologic assessments until neurologic symptom resolution. Severe neurotoxicity was defined as ≥grade 3 toxicity with the exception that any seizure (including grade 1 or 2 by CTCAE criteria) was included as severe neurotoxicity.

RS4; 11 (B-ALL) = experiment: Net production of TRP metabolites in media samples, RS4; 11; type: cell-based
THP-1 (monocyte) = experiment: Net production of TRP metabolites in media samples, THP-1; type: cell-based
CCF-STTG1 (astrocytoma) = experiment: Net production of TRP metabolites in media samples, CCF-STTG1; type: cell-based, human
Text: (§1) Under physiological conditions in the brain, kynurenine metabolism is driven by microglial cells and astrocytes with preferential production of QUIN and KA respectively. […] This may have been due to T cells producing cytokines and/or intermediate metabolites that are further metabolized to QUIN by the cells. In order to identify specific factors that may lead to tryptophan-kynurenine pathway up-regulation for QUIN production, we tested a panel of cytokine and chemokines implicated in NTX and CRS. […] We initially evaluated the panel of the select factors individually (FIGS. 16 A-B). We selected several cytokines based on their effect on rate-limiting enzymes for QUIN production. These included IFNγ, TNF, […], CXCL10 and […]. These enzymes were selected based on their regulation of key enzymes, KMO and KYNU, which may lead to supraphysiological accumulation of QUIN. These factors were further evaluated, individually or in combination, on astrocytoma, microglial, and primary monocyte-derived macrophages for mRNA levels of kynurenine pathway enzymes and kynurenine metabolites production (FIG. 17).

HMC3 (microglia) = experiment: Net production of TRP metabolites in media samples, HMC3; type: cell-based, human
Text: as §1

BV173 (B-ALL) = experiment: Net production of TRP metabolites in media samples, BV173; type: cell-based
CCRF-SB (B-ALL) = experiment: Net production of TRP metabolites in media samples, CCRF-SB; type: cell-based
HCN2 (cortical neuron) = experiment: Net production of TRP metabolites in media samples, HCN2; type: cell-based
ALL3.1 (B-ALL) = experiment: Net production of TRP metabolites in media samples, ALL3.1; type: cell-based
KARPAS231 (B-ALL) = experiment: Net production of TRP metabolites in media samples, KARPAS231; type: cell-based
SUP-B15 (B-ALL) = experiment: Net production of TRP metabolites in media samples, SUP-B15; type: cell-based
DOAY (medulloblastoma) = experiment: Net production of TRP metabolites in media samples, DOAY; type: cell-based

## Il1beta: cytokine
[1]; RT-PCR
  monocyte attracting factors in response to Il1b: strong upregulation of monocyte attracting factors, CCL2, CXCL9 and CXCL19
NMDA receptors
  p-CREB and p-Erk in cortical neurons: p-CREB and p-Erk upregulation

## tocilizumab
[2]
  frequency of severe neurotoxicity: did not affect the frequency of severe neurotoxicity
  rate of severe CRS: decreased the rate of severe CRS
[3]; 7 of 16 patients with severe neurotoxicity who received tocilizumab
  patients with peak neurotoxicity prior to or on the day of tocilizumab administration: 43.7%
[3]; 9 of 16 patients with severe neurotoxicity who received tocilizumab
  patients with peak neurotoxicity after the first dose of tocilizumab: 56.3%
[3]; in most patients
  response of neurotoxicity to tocilizumab administration: did not respond
[3]; range 0-3 days
  time from first tocilizumab and/or steroid dose to resolution of CRS (median): 1 days
[3]; range 4-21 days
  time from first tocilizumab and/or steroid dose to resolution of neurotoxicity (median): 9 days
[3]; serum
  serum IL6 after tocilizumab administration: transient increase of serum IL6
[3]; tocilizumab therapy alone
  effect on CRS: readily improved CRS
  effect on neurologic symptoms: did not ameliorate neurologic symptoms

## O=C(O)c1cccnc1C(=O)O [quinolinic acid]
NMDA receptors
  p-CREB and p-Erk in cortical neurons: p-CREB and p-Erk upregulation

## IFNγ: cytokine
RS4; 11 (B-ALL)
  Net production of TRP metabolites in media samples: 3-HK: 0.12 ± 1.4
  Net production of TRP metabolites in media samples: KA: −2.8 ± 7.2
  Net production of TRP metabolites in media samples: KYN: 26.58 ± 19.7
  Net production of TRP metabolites in media samples: QUIN: −4.26 ± 37.4
THP-1 (monocyte)
  Net production of TRP metabolites in media samples: 3-HK: 1.78 ± 1.9
  Net production of TRP metabolites in media samples: KA: −7.14 ± 5.2
  Net production of TRP metabolites in media samples: KYN: 2593.4 ± 153.7
  Net production of TRP metabolites in media samples: QUIN: −26.4 ± 68^
CCF-STTG1 (astrocytoma)
  Net production of TRP metabolites in media samples: 3-HK: −12.24 ± 1.2
  Net production of TRP metabolites in media samples: HAA: 8.88 ± 0.2
  Net production of TRP metabolites in media samples: KA: 8.2 ± 2.9
  Net production of TRP metabolites in media samples: KYN: 12049.08 ± 526
  Net production of TRP metabolites in media samples: QUIN: 1.34 ± 16
HMC3 (microglia)
  Net production of TRP metabolites in media samples: 3-HK: 20.8 ± 20.5
  Net production of TRP metabolites in media samples: HAA: 0.76 ± 3.3
  Net production of TRP metabolites in media samples: KA: 48.46 ± 25.8
  Net production of TRP metabolites in media samples: KYN: 45327.9 ± 11654
  Net production of TRP metabolites in media samples: QUIN: 55.88 ± 34^
BV173 (B-ALL)
  Net production of TRP metabolites in media samples: 3-HK: 1.06 ± 2.6
  Net production of TRP metabolites in media samples: KA: −4.58 ± 5^
  Net production of TRP metabolites in media samples: KYN: 46.72 ± 51.1
  Net production of TRP metabolites in media samples: QUIN: 6.54 ± 42.2
CCRF-SB (B-ALL)
  Net production of TRP metabolites in media samples: 3-HK: 1.9 ± 7.3
  Net production of TRP metabolites in media samples: HAA: 5.9 ± 0.5
  Net production of TRP metabolites in media samples: KA: −8.3 ± 5.5
  Net production of TRP metabolites in media samples: KYN: 410.1 ± 79.1
  Net production of TRP metabolites in media samples: QUIN: −53.44 ± 37.8
HCN2 (cortical neuron)
  Net production of TRP metabolites in media samples: 3-HK: −4.84 ± 8.3
  Net production of TRP metabolites in media samples: HAA: 6.34 ± 1.1
  Net production of TRP metabolites in media samples: KA: 6.48 ± 4.8
  Net production of TRP metabolites in media samples: KYN: 1597.26 ± 77
  Net production of TRP metabolites in media samples: QUIN: 25.26 ± 27.11
ALL3.1 (B-ALL)
  Net production of TRP metabolites in media samples: 3-HK: 8.76 ± 7.8
  Net production of TRP metabolites in media samples: KA: −3.32 ± 3.4
  Net production of TRP metabolites in media samples: KYN: 55.94 ± 132
  Net production of TRP metabolites in media samples: QUIN: 40.94 ± 140.3
KARPAS231 (B-ALL)
  Net production of TRP metabolites in media samples: 3-HK: 90.74 ± 9.3
  Net production of TRP metabolites in media samples: HAA: 244.46 ± 24.4
  Net production of TRP metabolites in media samples: KA: −9.22 ± 3.8
  Net production of TRP metabolites in media samples: KYN: 1247.28 ± 62.2
  Net production of TRP metabolites in media samples: QUIN: −26.02 ± 27.3
SUP-B15 (B-ALL)
  Net production of TRP metabolites in media samples: 3-HK: 18.5 ± 14.8
  Net production of TRP metabolites in media samples: HAA: 6.92 ± 0.9
  Net production of TRP metabolites in media samples: KA: −7.42 ± 3.2
  Net production of TRP metabolites in media samples: KYN: 299.52 ± 209^
  Net production of TRP metabolites in media samples: QUIN: −70 ± 31
DOAY (medulloblastoma)
  Net production of TRP metabolites in media samples: 3-HK: −13.38 ± 1.5
  Net production of TRP metabolites in media samples: HAA: 10.66 ± 0.9
  Net production of TRP metabolites in media samples: KA: 11.08 ± 0.9
  Net production of TRP metabolites in media samples: KYN: 6757.9 ± 129.3
  Net production of TRP metabolites in media samples: QUIN: 34.8 ± 7^

## CC[C@@H](C(N)=O)N1CCCC1=O [levetiracetam]
[3]; seizure prophylaxis
  patients who developed seizure despite levetiracetam prophylaxis: 14 patients

## O=C(O)c1cc(=O)c2ccccc2[nH]1 [KA, kynurenic acid]
[1]
  key chemokines, including CCL2, CXCL9 and CXCL10, and cytokine IL1beta: up-regulation

## Nc1ccccc1C(=O)CC(N)C(=O)O (centres unmarked) [kynurenine]
[1]; microglial cells, RT-PCR
  production of chemokines and cytokines on co-incubation: induced production of several chemokines (CCL2, CXCL9, CXCL10) and cytokines, most notably Il1β
[1]
  key chemokines, including CCL2, CXCL9 and CXCL10, and cytokine IL1beta: up-regulation
